Measurements taken from the NIST ThermoML archive (doi:10.1021/je700345b).
Several values for one entry are separate records, joined by “and”; a condition that tells them apart may be missing. Equal values may be shown once. ± gives the expanded uncertainty stated by the source.

Assay: wn = mass fraction of the nth substance listed
Details: Liquid, w2 = 0.5

CC(F)(F)F [1,1,1-trifluoroethane] + FC(F)C(F)(F)F
Details | viscosity
253.26 K, 2000 kPa | 0.237 ± 0.0053 mPa·s
253.26 K, 2010 kPa | 0.2374 ± 0.0053 mPa·s
253.26 K, 2090 kPa | 0.2377 ± 0.0053 mPa·s
253.26 K, 2170 kPa | 0.2378 ± 0.0053 mPa·s
253.26 K, 2180 kPa | 0.2371 ± 0.0053 mPa·s
253.26 K, 2220 kPa | 0.2379 ± 0.0053 mPa·s
253.26 K, 3370 kPa | 0.2426 ± 0.0054 mPa·s
253.26 K, 3380 kPa | 0.2427 ± 0.0054 mPa·s
253.26 K, 3390 kPa | 0.2427 ± 0.0054 mPa·s
253.26 K, 3410 kPa | 0.2425 ± 0.0054 mPa·s
253.26 K, 4930 kPa | 0.2479 ± 0.0055 mPa·s
253.26 K, 4960 kPa | 0.2479 ± 0.0055 mPa·s
253.26 K, 4970 kPa | 0.248 ± 0.0055 mPa·s
253.26 K, 4990 kPa | 0.2482 ± 0.0055 mPa·s
253.26 K, 5020 kPa | 0.2483 ± 0.0055 mPa·s
253.26 K, 5070 kPa | 0.2487 ± 0.0055 mPa·s
253.26 K, 7440 kPa | 0.2574 ± 0.0057 mPa·s
253.26 K, 7500 kPa | 0.2576 ± 0.0057 mPa·s
253.26 K, 7620 kPa | 0.258 ± 0.0057 mPa·s
253.26 K, 7720 kPa | 0.2587 ± 0.0057 mPa·s
263.23 K, 1990 kPa | 0.2076 ± 0.0047 mPa·s
263.23 K, 2020 kPa | 0.2074 ± 0.0047 mPa·s
263.23 K, 2070 kPa | 0.2081 ± 0.0047 mPa·s
263.23 K, 2120 kPa | 0.2077 ± 0.0049 mPa·s
263.23 K, 3660 kPa | 0.2139 ± 0.0048 mPa·s
263.23 K, 3670 kPa | 0.2137 ± 0.0048 mPa·s and 0.2139 ± 0.0048 mPa·s
263.23 K, 3680 kPa | 0.2138 ± 0.0048 mPa·s and 0.2137 ± 0.0048 mPa·s
263.23 K, 3720 kPa | 0.214 ± 0.0048 mPa·s
263.23 K, 3780 kPa | 0.214 ± 0.0048 mPa·s
263.23 K, 4690 kPa | 0.2177 ± 0.0049 mPa·s
263.23 K, 4990 kPa | 0.2192 ± 0.005 mPa·s
263.23 K, 5010 kPa | 0.2195 ± 0.005 mPa·s
263.23 K, 7000 kPa | 0.2258 ± 0.005 mPa·s
263.23 K, 7050 kPa | 0.2257 ± 0.0051 mPa·s
263.23 K, 7190 kPa | 0.2262 ± 0.0052 mPa·s
263.23 K, 7220 kPa | 0.227 ± 0.0052 mPa·s
273.24 K, 2150 kPa | 0.1827 ± 0.0043 mPa·s
273.24 K, 2160 kPa | 0.1825 ± 0.0042 mPa·s
273.24 K, 2190 kPa | 0.1826 ± 0.0042 mPa·s and 0.1823 ± 0.0042 mPa·s
273.24 K, 2230 kPa | 0.1829 ± 0.0043 mPa·s
273.24 K, 2260 kPa | 0.1829 ± 0.0042 mPa·s
273.24 K, 2270 kPa | 0.1829 ± 0.0042 mPa·s
273.24 K, 3450 kPa | 0.1878 ± 0.0043 mPa·s and 0.1876 ± 0.0043 mPa·s
273.24 K, 3470 kPa | 0.1877 ± 0.0043 mPa·s
273.24 K, 3480 kPa | 0.1873 ± 0.0043 mPa·s
273.24 K, 3500 kPa | 0.1878 ± 0.0043 mPa·s
273.24 K, 5030 kPa | 0.1923 ± 0.0044 mPa·s
273.24 K, 5040 kPa | 0.1925 ± 0.0044 mPa·s
273.24 K, 5060 kPa | 0.1925 ± 0.0044 mPa·s
273.24 K, 7360 kPa | 0.2011 ± 0.0046 mPa·s
273.24 K, 7450 kPa | 0.2008 ± 0.0046 mPa·s
273.24 K, 7520 kPa | 0.2015 ± 0.0046 mPa·s
273.24 K, 9710 kPa | 0.2103 ± 0.0048 mPa·s
273.24 K, 9880 kPa | 0.2106 ± 0.0048 mPa·s and 0.2104 ± 0.0048 mPa·s
283.34 K, 2000 kPa | 0.1592 ± 0.0038 mPa·s
283.34 K, 2060 kPa | 0.1592 ± 0.0038 mPa·s
283.34 K, 2120 kPa | 0.1591 ± 0.0038 mPa·s
283.34 K, 2160 kPa | 0.1591 ± 0.0038 mPa·s
283.34 K, 2220 kPa | 0.1593 ± 0.0038 mPa·s
283.34 K, 2230 kPa | 0.1592 ± 0.004 mPa·s and 0.1596 ± 0.0039 mPa·s
283.34 K, 2250 kPa | 0.1596 ± 0.0039 mPa·s
283.34 K, 2260 kPa | 0.1595 ± 0.0039 mPa·s
283.34 K, 2270 kPa | 0.1597 ± 0.0039 mPa·s
283.34 K, 3720 kPa | 0.165 ± 0.0039 mPa·s
283.34 K, 3770 kPa | 0.1651 ± 0.0039 mPa·s and 0.1654 ± 0.0039 mPa·s
283.34 K, 3820 kPa | 0.1654 ± 0.0039 mPa·s
283.34 K, 3860 kPa | 0.1655 ± 0.0039 mPa·s
283.34 K, 3880 kPa | 0.1657 ± 0.004 mPa·s
283.34 K, 4970 kPa | 0.1693 ± 0.004 mPa·s
283.34 K, 5000 kPa | 0.1693 ± 0.004 mPa·s
283.34 K, 5030 kPa | 0.1696 ± 0.004 mPa·s
283.34 K, 5040 kPa | 0.1695 ± 0.004 mPa·s
283.34 K, 7600 kPa | 0.178 ± 0.0042 mPa·s
283.34 K, 7640 kPa | 0.1783 ± 0.0042 mPa·s
283.34 K, 7680 kPa | 0.1784 ± 0.0042 mPa·s
283.34 K, 9750 kPa | 0.1851 ± 0.0046 mPa·s
283.34 K, 9860 kPa | 0.1854 ± 0.0047 mPa·s
283.34 K, 9900 kPa | 0.1857 ± 0.0045 mPa·s
283.34 K, 9920 kPa | 0.1857 ± 0.0045 mPa·s
283.34 K, 9930 kPa | 0.1856 ± 0.0044 mPa·s
293.33 K, 1920 kPa | 0.1394 ± 0.0035 mPa·s
293.33 K, 1940 kPa | 0.1392 ± 0.0035 mPa·s
293.33 K, 1970 kPa | 0.1396 ± 0.0035 mPa·s
293.33 K, 2020 kPa | 0.1394 ± 0.0035 mPa·s
293.33 K, 3570 kPa | 0.145 ± 0.0036 mPa·s
293.33 K, 3690 kPa | 0.1454 ± 0.0036 mPa·s
293.33 K, 3720 kPa | 0.1455 ± 0.0036 mPa·s
293.33 K, 3750 kPa | 0.1457 ± 0.0036 mPa·s
293.33 K, 4910 kPa | 0.1503 ± 0.0037 mPa·s and 0.15 ± 0.0037 mPa·s
293.33 K, 5000 kPa | 0.1506 ± 0.0037 mPa·s
293.33 K, 5030 kPa | 0.1506 ± 0.0037 mPa·s
293.33 K, 7510 kPa | 0.1585 ± 0.0038 mPa·s
293.33 K, 7540 kPa | 0.1584 ± 0.0038 mPa·s
293.33 K, 7560 kPa | 0.1584 ± 0.0038 mPa·s
293.33 K, 9770 kPa | 0.1667 ± 0.0039 mPa·s
293.33 K, 9810 kPa | 0.1669 ± 0.004 mPa·s
293.33 K, 9850 kPa | 0.1666 ± 0.004 mPa·s
293.33 K, 9880 kPa | 0.1669 ± 0.004 mPa·s
293.33 K, 9930 kPa | 0.1672 ± 0.004 mPa·s
